The target of the assay is T1, acetylcholinesterase (AChE) (Homo sapiens, UniProt P22303).
T1 construct: derived from human erythrocytes (Sigma)
As to the kind of experiment: Ellman spectrophotometric assay, acetylthiocholine hydrolysis at […] nm. The assay is classed as biochemical. Background: In Ellman's method for cholinesterases, released thiocholine reacts with DTNB.

A word on the IC50: it is the concentration at which inhibition is half-maximal. A lower IC50 goes with inhibition by little substance.

T1 sequence (P22303 32-614): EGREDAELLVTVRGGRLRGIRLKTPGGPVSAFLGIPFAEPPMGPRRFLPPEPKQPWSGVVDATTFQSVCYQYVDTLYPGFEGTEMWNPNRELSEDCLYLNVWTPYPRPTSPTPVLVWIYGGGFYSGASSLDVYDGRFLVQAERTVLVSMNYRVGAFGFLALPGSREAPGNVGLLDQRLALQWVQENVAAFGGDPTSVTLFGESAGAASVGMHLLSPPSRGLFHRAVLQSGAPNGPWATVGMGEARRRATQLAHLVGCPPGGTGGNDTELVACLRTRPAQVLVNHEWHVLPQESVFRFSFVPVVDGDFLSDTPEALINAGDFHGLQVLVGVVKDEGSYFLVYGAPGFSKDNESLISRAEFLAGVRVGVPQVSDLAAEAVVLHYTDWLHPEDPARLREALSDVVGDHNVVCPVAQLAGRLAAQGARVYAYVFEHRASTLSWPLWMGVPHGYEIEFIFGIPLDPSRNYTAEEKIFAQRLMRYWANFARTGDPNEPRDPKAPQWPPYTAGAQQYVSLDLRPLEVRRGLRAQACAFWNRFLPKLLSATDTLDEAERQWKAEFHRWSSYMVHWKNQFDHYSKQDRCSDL

Turning to `Cc1cc(C=O)nc2c1[C@@]1(C)C[C@H](O)[C@@]34C[C@@]35CC[C@H](O[C@@H]3OC[C@H](O)[C@H](O)[C@H]3O)C(C)(C)[C@@H]5CC=C4[C@]1(C)C2` [compound 2, (3β,11β)-11-Hydroxy-16,23-nitrilo-7,17(20),22-trien-24-formyl-25,26,27-trinor-9,19-cycloart-3-O-α-larabinopyranoside], the half-inhibitory concentration (IC50) amounted to 3.87 µM. On to `CC(=O)O[C@@H]1C[C@@]23C[C@@]24CC[C@H](O[C@@H]2OC[C@H](O)[C@H](O)[C@H]2O)C(C)(C)[C@@H]4CC=C3[C@]2(C)C(=O)C(=O)[C@@]3(O[C@@H]([C@H](O)C(C)(C)O)C[C@H]3C)[C@@]12C` [compound 1, (3β,12β,17S,20R,23R,24S)-17,23-Epoxy-15,16-dione-12-acetoxy-3,25-dihydroxy-7-en-9,19-cycloart-3-O-α-larabinopyranoside], for which the 50% inhibitory concentration (IC50) turned out to be 1.58 µM. Compared with the last compound, the IC50 is about 2.4-fold lower.

(Values after publication PMC9078504, “Antiacetylcholinesterase triterpenes from the fruits of Cimicifuga yunnanensis” (RSC Advances, 2018).)
